According to patent publication US20190085024A1, “Alpha-Ketoamide Inhibitors Of Cysteine Proteases” (Phelix Therapeutics, priority 2017, published 2019):
*1 amine or outer side, *2 acyl side, *3 side chain or, on linkers, in order; H or OH if unused. Where a SMILES comes first, the peptide text is derived from it. [ ]: non-standard residue; d: D form. 2Nal = N[CH](Cc1ccc2ccccc2c1)C(=O)O; X1 = CCC(C)C(N[*:1])C(=O)C(=O)[*:2]

Assays:
Calpain = Calpain enzyme assay; type: biochemical; settings: Ki by Morrison equation; pH 7.5, 5 mM CaCl2
Cathepsin L = Cathepsin L (Homo sapiens, UniProt P07711); assay: Cathepsin L enzyme assay; type: biochemical; settings: Ki by Morrison equation; pH 5.5, substrate Z-Phe-Arg-Amc; read-out: Cat L
Description: Two wells contained DMSO only for controls.
Velocity was converted to μM/sec.

Chain of Cathepsin L (P07711 114-333, species assumed): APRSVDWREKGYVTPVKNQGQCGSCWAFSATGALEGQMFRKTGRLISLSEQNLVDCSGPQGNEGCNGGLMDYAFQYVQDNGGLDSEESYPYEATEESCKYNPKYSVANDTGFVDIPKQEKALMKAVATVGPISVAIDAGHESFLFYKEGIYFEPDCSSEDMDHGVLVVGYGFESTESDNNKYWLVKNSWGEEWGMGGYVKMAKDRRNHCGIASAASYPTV

Compound | Ki (Calpain) [µM] | Ki (Cathepsin L) [µM]
CC[C@H](C)C(NC(=O)[C@H](CC#N)NC(=O)Cc1ccccc1)C(=O)C(=O)NCC(=O)N[C@@H](Cc1ccc2ccccc2c1)C(N)=O (some centres unmarked) [PHELIX337, N-(2-((1-amino-3-(naphthalen-2-yl)-1-oxopropan-2-yl)amino)-2-oxoethyl)-3-(3-cyano-2-(2-phenylacetamido)propanamido)-4-methyl-2-oxohexanamide] | 0.224 | 0.00848
CCC(C)C(NC(=O)C(CC(C)C)NC(=O)OCc1ccccc1)C(=O)C(=O)NCC(=O)NC(Cc1ccc2ccccc2c1)C(N)=O (centres unmarked) [PHELIX293, benzyl (1-((1-((2-((1-amino-3-(naphthalen-2-yl)-1-oxopropan-2-yl)amino)-2-oxoethyl)amino)-4-methyl-1,2-dioxohexan-3-yl)amino)-4-methyl-1-oxopentan-2-yl)carbamate] | 1.19 | –
CCC(C)C(NC(=O)C(CC(C)C)NC(=O)OCc1ccccc1)C(=O)C(=O)NC(Cc1cc2ccccc2[nH]1)C(N)=O (centres unmarked) [PHELIX343, benzyl (1-((1-((1-amino-3-(1H-indol-2-yl)-1-oxopropan-2-yl)amino)-4-methyl-1,2-dioxohexan-3-yl)amino)-4-methyl-1-oxopentan-2-yl)carbamate] | 0.0341 | 0.00353
CCC(C)C(NC(=O)C(NC(=O)Cc1ccccc1)C(C)(C)C)C(=O)C(=O)NCC(=O)NC(Cc1ccc2ccccc2c1)C(N)=O (centres unmarked) [PHELIX323, N-(2-((1-amino-3-(naphthalen-2-yl)-1-oxopropan-2-yl)amino)-2-oxoethyl)-3-(3,3-dimethyl-2-(2-phenylacetamido)butanamido)-4-methyl-2-oxohexanamide] | 2.37 ± 1.05 | 0.273
CCC(C)C(C(=O)C(=O)NCC(=O)NC(Cc1ccc2ccccc2c1)C(N)=O)N(C)C(=O)C(CC(C)C)NC(=O)OCc1ccccc1 (centres unmarked) [PHELIX306, benzyl (1-((1-((2-((1-amino-3-(naphthalen-2-yl)-1-oxopropan-2-yl)amino)-2-oxoethyl)amino)-4-methyl-1,2-dioxohexan-3-yl)(methyl)amino)-4-methyl-1-oxopentan-2-yl)carbamate] | 0.447 | 0.0776
CCC(C)C(NC(=O)C(CC(C)C)NC(=O)OCc1ccccc1)C(=O)C(=O)N(C)C(Cc1ccccc1)C(N)=O (centres unmarked) [PHELIX358, benzyl (1-((1-((1-amino-1-oxo-3-phenylpropan-2-yl)(methyl)amino)-4-methyl-1,2-dioxohexan-3-yl)amino)-4-methyl-1-oxopentan-2-yl)carbamate] | – | > 1
CCC(C)C(NC(=O)C(=O)CCNC(=O)Cc1ccccc1)C(=O)NC(C)(C)C(=O)O (centres unmarked) [PHELIX133, 2-methyl-2-(3-methyl-2-(2-oxo-4-(2-phenylacetamido)butanamido)pentanamido)propanoic acid] | – | 210
CC(C)CC(NC(=O)C(Cc1ccccc1)NC(=O)OCc1ccccc1)C(=O)NC(Cc1ccccc1)C(=O)C(=O)NC(CCCNC(=N)N)C(N)=O (centres unmarked) [PHELIX339, benzyl (1-amino-10-benzyl-6-carbamoyl-1-imino-13-isobutyl-8,9,12,15-tetraoxo-17-phenyl-2,7,11,14-tetraazaheptadecan-16-yl)carbamate] | 0.00218 | –
CC(NC(=O)C(Cc1ccccc1)NC(=O)Cc1ccccc1)C(=O)C(=O)NC(Cc1ccccc1)C(=O)NC(Cc1ccc(-c2ccccc2)cc1)C(N)=O (centres unmarked) [PHELIX213, N-(1-((3-([1,1′-biphenyl]-4-yl)-1-amino-1-oxopropan-2-yl)amino)-1-oxo-3-phenylpropan-2-yl)-2-oxo-3-(3-phenyl-2-(2-phenylacetamido)propanamido)butanamide] | > 10 | –
CCC(C)C(NC(=O)CNC(=O)C(Cc1ccc2ccccc2c1)NC(C)=O)C(=O)C(=O)NC(CC(C)C)C(=O)NC(Cc1ccccc1)C(N)=O (centres unmarked) [PHELIX338, 3-(2-(2-acetamido-3-(naphthalen-2-yl)propanamido)acetamido)-N-(1-((1-amino-1-oxo-3-phenylpropan-2-yl)amino)-4-methyl-1-oxopentan-2-yl)-4-methyl-2-oxohexanamide] (Ac-[2Nal]G[X1]LF-NH2; configuration not given here) | – | 2.88
CC(NC(=O)C(Cc1ccccc1)NC(=O)Cc1ccccc1)C(=O)C(=O)NC(Cc1ccccc1)C(=O)NC(Cc1ccc(-c2ccccc2)cc1)C(N)=O (centres unmarked) [PHELIX248, N-(1-((3-([1,1′-biphenyl]-4-yl)-1-amino-1-oxopropan-2-yl)amino)-1-oxo-3-phenylpropan-2-yl)-2-oxo-3-(3-phenyl-2-(2-phenylacetamido)propanamido)butanamide] | > 10 | –
CC(NC(=O)C(Cc1ccccc1)NC(=O)Cc1ccccc1)C(=O)C(=O)NC(Cc1ccccc1)C(=O)NC(Cc1ccc(-c2ccccc2)cc1)C(N)=O (centres unmarked) [PHELIX247, N-(1-((3-([1,1′-biphenyl]-4-yl)-1-amino-1-oxopropan-2-yl)amino)-1-oxo-3-phenylpropan-2-yl)-2-oxo-3-(3-phenyl-2-(2-phenylacetamido)propanamido)butanamide] | > 10 | –
CCC(C)C(NC(=O)C(=O)CCNC(=O)C(Cc1ccccc1)NC(=O)Cc1ccccc1)C(=O)NC(C)(C)C(=O)O (centres unmarked) [PHELIX218, 13-benzyl-5-(sec-butyl)-2,2-dimethyl-4,7,8,12,15-pentaoxo-16-phenyl-3,6,11,14-tetraazahexadecanoic acid] | – | > 1000

Second part, the compound after the results:

Ki (Calpain) [µM] | Ki (Cathepsin L) [µM] | Compound
0.0171 | 0.00388 | CCC(C)C(NC(=O)C(CC(C)C)NC(=O)OCc1ccccc1)C(=O)C(=O)NC(CCCNC(N)=O)C(N)=O (centres unmarked) [PHELIX340, benzyl (1-((1-((1-amino-1-oxo-5-ureidopentan-2-yl)amino)-4-methyl-1,2-dioxohexan-3-yl)amino)-4-methyl-1-oxopentan-2-yl)carbamate]
0.0336 | 0.00404 | CCC(C)C(NC(=O)C(CC(C)C)NC(=O)OCc1ccccc1)C(=O)C(=O)NC(CC#N)C(=O)NC(Cc1ccc2ccccc2c1)C(N)=O (centres unmarked) [PHELIX336, benzyl (1-((1-((1-((1-amino-3-(naphthalen-2-yl)-1-oxopropan-2-yl)amino)-3-cyano-1-oxopropan-2-yl)amino)-4-methyl-1,2-dioxohexan-3-yl)amino)-4-methyl-1-oxopentan-2-yl)carbamate]
0.00168 | 0.00276 | CCC(C)C(NC(=O)C(CC(C)C)NC(=O)OCc1ccccc1)C(=O)C(=O)NCC(=O)NC(Cc1cccc(F)c1)C(N)=O (centres unmarked) [PHELIX348, benzyl (1-((1-((2-((1-amino-3-(3-fluorophenyl)-1-oxopropan-2-yl)amino)-2-oxoethyl)amino)-4-methyl-1,2-dioxohexan-3-yl)amino)-4-methyl-1-oxopentan-2-yl)carbamate]
0.0003 | 0.00045 | CCC(C)C(NC(=O)C(CC(C)C)NC(=O)Cc1cccnc1)C(=O)C(=O)NCC(=O)N(C)C(Cc1ccccc1)C(N)=O (centres unmarked) [PHELIX351, N-(2-((1-amino-1-oxo-3-phenylpropan-2-yl)(methyl)amino)-2-oxoethyl)-4-methyl-3-(4-methyl-2-(2-(pyridin-3-yl)acetamido)pentanamido)-2-oxohexanamide]
0.00092 | – | CCC(C)C(NC(=O)C(CC(C)C)NC(=O)OCc1ccccc1)C(=O)C(=O)NCC(=O)NC(Cc1ccc2ccccc2c1)C(N)=O (centres unmarked) [PHELIX257, benzyl (1-((1-((2-((1-amino-3-(naphthalen-2-yl)-1-oxopropan-2-yl)amino)-2-oxoethyl)amino)-4-methyl-1,2-dioxohexan-3-yl)amino)-4-methyl-1-oxopentan-2-yl)carbamate]
0.00824 | 0.0006 | CC[C@H](C)C(NC(=O)[C@H](CC(C)C)NC(=O)OCc1ccccc1)C(=O)C(=O)NCC(=O)N[C@H](Cc1ccc2ccccc2c1)C(N)=O (some centres unmarked) [PHELIX304, benzyl (1-((1-((2-((1-amino-3-(naphthalen-2-yl)-1-oxopropan-2-yl)amino)-2-oxoethyl)amino)-4-methyl-1,2-dioxohexan-3-yl)amino)-4-methyl-1-oxopentan-2-yl)carbamate]
0.00801 | 0.00333 | CCC(C)C(NC(=O)C(CC(C)C)NC(=O)OCc1ccccc1)C(=O)C(=O)NC(CC(N)=O)C(=O)NC(Cc1ccc2ccccc2c1)C(N)=O (centres unmarked) [PHELIX316, benzyl (1-((1-((4-amino-1-((1-amino-3-(naphthalen-2-yl)-1-oxopropan-2-yl)amino)-1,4-dioxobutan-2-yl)amino)-4-methyl-1,2-dioxohexan-3-yl)amino)-4-methyl-1-oxopentan-2-yl)carbamate]
0.00098 | 0.00059 | CCC(C)C(NC(=O)C(CC(C)C)NC(=O)Cc1ccncc1)C(=O)C(=O)NCC(=O)NC(Cc1ccc2ccccc2c1)C(N)=O (centres unmarked) [PHELIX333, N-(2-((1-amino-3-(naphthalen-2-yl)-1-oxopropan-2-yl)amino)-2-oxoethyl)-4-methyl-3-(4-methyl-2-(2-(pyridin-4-yl)acetamido)pentanamido)-2-oxohexanamide]
0.00163 | 0.00382 | CCC(C)C(NC(=O)C(CC(C)C)NC(=O)OCc1ccccc1)C(=O)C(=O)NCC(=O)NC(Cc1ccccc1)C(N)=O (centres unmarked) [PHELIX318, benzyl (1-((1-((2-((1-amino-1-oxo-3-phenylpropan-2-yl)amino)-2-oxoethyl)amino)-4-methyl-1,2-dioxohexan-3-yl)amino)-4-methyl-1-oxopentan-2-yl)carbamate]
0.00205 | 0.00084 | CCC(C)C(NC(=O)C(CC(C)C)NC(=O)OCc1ccccc1)C(=O)C(=O)NC(C)C(=O)NC(Cc1ccc2ccccc2c1)C(N)=O (centres unmarked) [PHELIX295, benzyl (1-((1-((1-((1-amino-3-(naphthalen-2-yl)-1-oxopropan-2-yl)amino)-1-oxopropan-2-yl)amino)-4-methyl-1,2-dioxohexan-3-yl)amino)-4-methyl-1-oxopentan-2-yl)carbamate]
0.00261 | – | CCC(C)C(NC(=O)C(CC(C)C)NC(C)=O)C(=O)C(=O)NCC(=O)NC(Cc1ccc2ccccc2c1)C(N)=O (centres unmarked) [PHELIX307, 3-(2-acetamido-4-methylpentanamido)-N-(2-((1-amino-3-(naphthalen-2-yl)-1-oxopropan-2-yl)amino)-2-oxoethyl)-4-methyl-2-oxohexanamide]
0.0055 | – | CCC(C)C(NC(=O)C(CC(C)C)NC(C)=O)C(=O)C(=O)NCC(=O)NC(Cc1ccc2ccccc2c1)C(N)=O (centres unmarked) [PHELIX310]
